Reference: patent publication US20250387322A1, “DRUG DELIVERY AGENTS FOR PREVENTION OR TREATMENT OF PULMONARY DISEASE” (UNIVERSITY INDUSTRY FOUNDATION, YONSEI UNIVERSITY WONJU …, priority 2018, published 2025)

Legend:
[1] = in vivo; cited from earlier work
[2] = test system: pulmonary fibrosis animal model; assay: Bleomycin (BLM) pulmonary fibrosis model: histopathology, immunohistochemistry, micro-CT; format: in vivo; details: FIG. 15A
Source text: FIG. 15A illustrates an effect of nintedanib-loaded PLGA disc particles according to one embodiment of the present disclosure, and FIGS. 15B to 15E illustrate experimental results according to each comparison group. […] FIGS. 15A to 15E illustrate results obtained by evaluating tissue morphology and degrees of inflammation and fibrosis through histopathological and immunohistochemical changes. Also, a scale bar in FIG. 15A is 100 μm. […] At this time, Nib is orally administered in the BLM and Nib administered group.

[3] = test system: lung cancer metastasis model; assay: Optical imaging of carrier/drug distribution in lung cancer metastasis model; format: in vivo
Procedure: FIG. 9 is an optical microscope image of major organs 3 hours after injecting a lung disease drug delivery carrier according to one Example of the present disclosure and Comparative Example into a lung cancer metastasis model. A GFP filter image may identify the presence or absence of cancer and a location thereof by labeling cancer cells with GFP (green fluorescent protein).
FIG. 10 is an optical microscope image of a lung cancer metastasis model injected with a lung disease drug delivery carrier according to one Example of the present disclosure.
FIG. 18A is an image of photographing the locations of cancer tumor and the locations of an injected DOX-DPP (doxorubicin-loaded disc-shaped drug delivery carrier) in an animal model, and FIG. 18B illustrates comparison of the locations of cancer tumor in major organs and amounts of doxorubicin alone (free DOX) or DOX-DPP in major organs. In this regard, the scale bar in FIG. 18A means 5 mm, and the scale bar in FIG. 18B means 20 mm. In addition, the cancer is a cancer cell expressing a GFP green fluorescent protein.

[4] = test system: C57BL/6 mice with lung cancer
[5] = in vivo; cited from earlier work; remark: listed apart in the source

CCNC(=O)[C@@H]1CCCN1C(=O)[C@H](CCCNC(=N)N)NC(=O)[C@H](CC(C)C)NC(=O)[C@@H](CC(C)C)NC(=O)[C@H](Cc1ccc(O)cc1)NC(=O)[C@H](CO)NC(=O)[C@H](Cc1c[nH]c2ccccc12)NC(=O)[C@H](Cc1c[nH]cn1)NC(=O)[C@@H]1CCC(=O)N1 [Leuprolide]
bioavailability compared to the subcutaneous route [1]: 50%

COC(=O)c1ccc2c(c1)NC(=O)/C2=C(\Nc1ccc(N(C)C(=O)CN2CCN(C)CC2)cc1)c1ccccc1 [Nib, nintedanib]
inflammatory response and fibrous mass (histopathology) [2]: an inflammatory response is shown and the formation of a dense fibrous mass is shown

COc1cccc2c1C(=O)c1c(O)c3c(c(O)c1C2=O)C[C@@](O)(C(=O)CO)C[C@@H]3O[C@H]1C[C@H](N)[C@H](O)[C@H](C)O1 [Comparative Example 2, doxorubicin]
accumulation in major organs ([3]; 3 hours after injecting, lung cancer metastasis model, FIG. 9): accumulated in the liver and kidneys in addition to the lungs | distribution of drug in major organs ([3]; animal model with GFP-expressing cancer, FIGS. 18A, 18B): the drug is distributed even in major organs | metastatic tumor nodules in lung ([4]; FIG. 19B): more metastatic tumor nodules appeared | cardiac toxicity ([4]; long-period administration): cardiac toxicity appears | inflammation in heart and kidney ([4]; organ tissue images, FIG. 20): strong inflammatory responses occur in the heart and kidney

Cc1ccc(=O)n(-c2ccccc2)c1 [pirfenidone]
bioavailability [5]: 4.7%
